What is called Ki is a dissociation constant, usually derived from enzyme kinetics or from competition with a known ligand. The low end stands for a stronger hold on the target, the high end for a looser hold on the target.

We go through one compound from BindingDB's records for doi:10.1021/jm00378a002 (1985).

The target in this assay is uridine-cytidine kinase (Mus musculus). The assay can be described thus: Binding affinity to uridine kinase from L1210. was determined from the dixon plot.

As to `O=c1ccn([C@@H]2C=C(CO)[C@@H](O)[C@H]2O)c(=O)[nH]1` [1-(4,5-Dihydroxy-3-hydroxymethyl-cyclopent-2-enyl)-4-hydroxy-1H-pyrimidin-2-one], the affinity, expressed as Ki, was 230 µM.
